Data on one substance can be found in US20250346642A1, “NEW SPLICE VARIANT ISOFORM OF VEGF” (CENTRE NATIONAL DE LA RECHERCHE SCIENTIFIQUE (CNRS), priority 2020, published 2025).

Assay [1] has as its system 786-O cells. The assay is described as follows: 786-O experimental tumors in mice, anti-VEGFXXX/NF, bevacizumab or anti-KLH treatment (FIG. 12D-J). Format: in vivo. The note with it: 786-O tumors. How it is done: (E) The weight of 786-O tumors at the end of the experiment. (F) Quantification of Ki67 positive cells in 786-0 tumors. […] (G) Number of mature (CD31+, a-SMA+) vessels in the different tumor sections.
Plasma levels of VEGFXXX/NFand VEGF are increased in the VEGF bevacizumab-treated group. […] FIG. 13. A-D) The levels of VEGF and VEGF222/NF were evaluated in the plasma (just before sunitinib treatment) of 47 metastatic ccRCC patients. The third quartile was used as the cut-off to determine patients' groups, respectively 4500 […] for VEGF and VEGF222/NF. The plasma levels of VEGF (A and C) or VEGF222/NF (B and D) were correlated to PFS under first-line sunitinib treatment (A and B) or with OS (C and D). Kaplan-Meier method was used to produce survival curves and analyzes of censored data were performed using Cox models. Statistical significance (p values) is indicated.
Tumor sections (5-μm cryostat sections) were fixed in 4% paraformaldehyde for twenty minutes at room temperature and blocked in 1% donkey serum in Tris-buffered saline (TBS) for two hours. […] Preparations were mounted and analyzed with a Leica microscope (Leica DMI4000B) and counted at a 10× magnification. Results are expressed as the number of vessels per mm^2 of sections.

Assay [2] concerns 786-O cells. Kind of assay: 786-O experimental RCC tumors in NMRI mice, antibody treatment (FIG. 10). Format: in vivo. The note with it: intraperitoneal once a week for 6 weeks, 5 mg/kg. The source says:
FIG. 10. VEGF222/NF inhibition delays tumor growth of experimental RCC. 3M of 786-O cells were subcutaneously grafted in the left flank of NMRI mice. […] Tumor volumes were monitored with a caliper for 50 days. ***P<0.001, ****P<0.0001 (Anova Test).
For generating control or polyclonal anti-VEGF222/NF antibodies, 6 weeks BALB/cJRj mice (n=10) were immunized either with KLH carrier protein or with specific peptides SEQ 1 and SEQ2 coupled to KLH as previously described (Guyot et al., 2017, Targeting the pro-angiogenic forms of VEGF or inhibiting their expression as anti-cancer strategies. Oncotarget 8, 9174-9188) IgG were purified of Protein G Sepharose column. All animal studies were approved in advance by the local animal care committee (Veterinary service and direction of sanitary and social action of Monaco, Dr H. Raps.)

As to bevacizumab, in assay [1], the “number of lymphatic vessels (LYVE1+) in tumors” value is “stimulated their development” and the “size of tumors versus control group” value is listed as “equivalent to those of the control group”. For the same substance, the “tumor growth of 786-O experimental tumors” value in assay [2] is given as “did not”.
